The text below walks through data of US20260035382A1, “COMPOUNDS AS SUMO ACTIVATING ENZYME INHIBITORS” (WIGEN BIOMEDICINE TECHNOLOGY (SHANGHAI) CO., LTD., priority 2022, published 2026).

The structures appear in SMILES notation. Where only a bound is given, the exact number is not on record here.

Broadly, the IC50 is the concentration that inhibits the measured activity by half.

SAE, sequence (Q9UBT2 whole entry): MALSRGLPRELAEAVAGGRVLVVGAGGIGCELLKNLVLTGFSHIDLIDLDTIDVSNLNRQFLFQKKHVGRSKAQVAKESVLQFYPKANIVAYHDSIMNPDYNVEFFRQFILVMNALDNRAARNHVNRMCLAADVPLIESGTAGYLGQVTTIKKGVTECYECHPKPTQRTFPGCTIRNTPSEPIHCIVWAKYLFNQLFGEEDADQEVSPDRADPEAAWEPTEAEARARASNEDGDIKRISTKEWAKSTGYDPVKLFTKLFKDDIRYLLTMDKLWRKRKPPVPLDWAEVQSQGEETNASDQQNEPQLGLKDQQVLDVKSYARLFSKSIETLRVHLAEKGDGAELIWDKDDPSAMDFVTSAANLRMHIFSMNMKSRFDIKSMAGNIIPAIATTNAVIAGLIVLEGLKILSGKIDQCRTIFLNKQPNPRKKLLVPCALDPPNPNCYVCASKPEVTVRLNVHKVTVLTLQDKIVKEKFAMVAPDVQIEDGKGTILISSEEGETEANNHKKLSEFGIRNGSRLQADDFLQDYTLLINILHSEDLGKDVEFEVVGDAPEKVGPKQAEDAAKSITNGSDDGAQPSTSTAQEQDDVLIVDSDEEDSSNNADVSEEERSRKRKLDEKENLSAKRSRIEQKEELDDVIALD
SAE, sequence (Q9UBE0 whole entry partner): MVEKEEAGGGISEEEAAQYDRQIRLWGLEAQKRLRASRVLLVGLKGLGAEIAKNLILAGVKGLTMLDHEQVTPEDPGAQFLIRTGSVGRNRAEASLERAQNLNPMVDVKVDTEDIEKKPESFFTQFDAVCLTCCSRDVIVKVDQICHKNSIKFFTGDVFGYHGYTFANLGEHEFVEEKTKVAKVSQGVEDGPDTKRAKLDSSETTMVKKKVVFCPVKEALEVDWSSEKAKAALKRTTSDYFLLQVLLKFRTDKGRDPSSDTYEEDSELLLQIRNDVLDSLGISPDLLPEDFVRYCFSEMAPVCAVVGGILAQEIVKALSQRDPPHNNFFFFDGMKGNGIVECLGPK

The first assay addresses SAE (Homo sapiens (Human), UniProt Q9UBT2). The assay is described as follows: In vitro inhibitory activity assay against SAE (SUMO-2/3 immunofluorescence in HCT116 cells). Format: cell-based. Conditions: 6 h incubation, class symbols, read-out: SUMO IF IC50. As to the method:
HCT116 cells were seeded into a 96-well black transparent bottom plate at about 20000/well with 90 μL per well. The cells were incubated at 37° C. overnight for 24 h. The test compounds were 10-fold diluted to give a final concentration, and 10 μL of the diluted compounds was added to each well of the cell culture plate. The mixture was incubated at 37° C. for 6 h. The cells were then washed gently, the culture medium was discarded, and the cells were washed once with 200 μL of 0.1% o PBST. 50 μL of 4% PFA was added to each well, and the cells were immobilized at room temperature for 20 min, and then washed with PBS 2-3 times. 50 μL of 0.2% o Triton X-100 was added to each well, and the cells were left to stand at room temperature for 15 min and washed with 0.1% PBST 3 times. 100 uL of 3% BSA (0.6 g BSA+20 mL PBS) was added to each well, and the mixture was blocked at 37° C. for 30 min. After the blocking was completed, the liquid was removed and a primary antibody (SUMO-2/3 (181H8) Rabbit mAb, 1:400 dilution) was prepared with […]. 30 μL of the diluted primary antibody was added to each well, and the mixture was incubated at 4° C. overnight. The cells were washed 3 times with 200 μL of 0.1% o PBST. A FITC secondary antibody (Fluorescein (FITC)-conjugated Affinipure Goat Anti-Rabbit IgG (H+L), 1:300 dilution) was further prepared with 1% o BSA, and 40 μL of the diluted secondary antibody was added to each well. The mixture was incubated at room temperature in the dark for 2 h, and then the cells were washed 4 times with 0.1% PBST. The fluorescence signal of the sample was detected and compared to the DMSO group, and the inhibition rate and IC50 were calculated.
With `N#Cc1ccc2c(c1)[C@@]1(CCCc3sc(C(=O)c4cncnc4N[C@@H]4C[C@H](COS(N)(=O)=O)[C@@H](O)C4)cc31)NCC2` [Compound 12], the IC50 is at most 0.05 µM.

Take `NS(=O)(=O)OC[C@H]1C[C@@H](Nc2ncncc2C(=O)c2cc3c(s2)CCCC32NCCc3cc(Cl)c(Cl)cc32)C[C@@H]1O` (some centres unmarked) [Compound 28]: the IC50 was in the range of 0.05 to 0.2 µM. As for `NS(=O)(=O)OC[C@H]1C[C@@H](Nc2ncncc2C(=O)c2nc3c(s2)COCC32NCCc3ccc(Cl)cc32)C[C@@H]1O` (some centres unmarked) [Compound 124], the IC50 is above 0.2 µM. On to `NS(=O)(=O)OC[C@H]1C[C@@H](Nc2ncncc2C(=O)c2cc3c(s2)CCC32OCCc3ccc(Cl)cc32)C[C@@H]1O` (some centres unmarked) [Compound 84], for which the IC50 is at most 0.05 µM. Consider `NS(=O)(=O)OC[C@H]1C[C@@H](Nc2ncncc2C(=O)c2cc3c(s2)CN(C2CC2)C[C@@]32OCCc3ccc(F)cc32)C[C@@H]1O` [Compound 275], for which the IC50 was above 0.2 µM. Still for that read-out and setting: to `NS(=O)(=O)OC[C@H]1C[C@@H](Nc2ncncc2C(=O)c2cc3c(s2)CCC32NCCc3cc(F)c(F)cc32)C[C@@H]1O` (some centres unmarked) [Compound 68] belongs 0.05 to 0.2 µM. On to `COc1ccc2c(c1)C1(CCCc3sc(C(=O)c4cncnc4N[C@@H]4C[C@H](COS(N)(=O)=O)[C@@H](O)C4)cc31)NCC2` (some centres unmarked) [Compound 24], for which the IC50 is above 0.2 µM. On to `NS(=O)(=O)OC[C@H]1C[C@@H](Nc2ncncc2C(=O)c2cc3c(s2)CNC[C@]32NCCc3ccc(Cl)cc32)C[C@@H]1O` [Compound 120], for which the IC50 fell in the range of 0.05 to 0.2 µM.

`NS(=O)(=O)CC[C@H]1C[C@@H](Nc2ncncc2C(=O)c2cc3c(s2)CCCC32NCCc3ccc(Cl)nc32)C[C@@H]1O` (some centres unmarked) [Compound 136]: the IC50 was at most 0.05 µM. Same read-out and setting: for `[2H]C1([2H])CNC2(CCCc3sc(C(=O)c4cncnc4N[C@@H]4C[C@H](COS(N)(=O)=O)[C@@H](O)C4)cc32)c2cc(Cl)ccc21` (some centres unmarked) [Compound 199] the value was at most 0.05 µM; for `NS(=O)(=O)OC[C@H]1C[C@@H](Nc2ncncc2C(=O)c2cc3c(s2)CCC32NCCc3ccc(C4CC4)cc32)C[C@@H]1O` (some centres unmarked) [Compound 65], 0.05 to 0.2 µM; for `NS(=O)(=O)OC[C@H]1C[C@@H](Nc2ncncc2C(=O)c2cc3c(s2)CCC32NCCc3cc(Cl)c(Cl)cc32)C[C@@H]1O` (some centres unmarked) [Compound 70], 0.05 to 0.2 µM.

Turning to `NS(=O)(=O)OC[C@H]1C[C@@H](Nc2ncncc2C(=O)c2cc3c(s2)C(F)=C[C@]32NCCc3ccc(Cl)cc32)C[C@@H]1O` [Compound 156], the IC50 was at most 0.05 µM.

Turning to `NS(=O)(=O)OC[C@H]1C[C@@H](Nc2ncncc2C(=O)c2cc3c(s2)CCC32NCCc3ccc(C(F)(F)F)cc32)C[C@@H]1O` (some centres unmarked) [Compound 67], the IC50 is 0.05 to 0.2 µM.

As for `NS(=O)(=O)OC[C@H]1C[C@@H](Nc2ncncc2C(=O)c2cc3c(s2)CCC[C@]32NCCc3cc(F)c(Cl)cc32)C[C@@H]1O` [Compound 207], the IC50 is at most 0.05 µM. Still for that read-out and setting: to `NS(=O)(=O)OC[C@H]1C[C@@H](Nc2ncncc2C(=O)c2cc3c(s2)COCC32NCCc3cc(Cl)c(Cl)cc32)C[C@@H]1O` (some centres unmarked) [Compound 97] belongs 0.05 to 0.2 µM.

Regarding `N#Cc1ccc2c(c1)C1(CCCc3sc(C(=O)c4cncnc4N[C@@H]4C[C@H](COS(N)(=O)=O)[C@@H](O)C4)cc31)OCC2` (some centres unmarked) [Compound 250], the IC50 lay within 0.05 to 0.2 µM. On the same count and under the same terms, to `NS(=O)(=O)OC[C@H]1C[C@@H](Nc2ncncc2C(=O)c2cc3c(s2)CCC[C@]32NCCc3ccc(Cl)nc32)C[C@@H]1O` [Compound 138] belongs at most 0.05 µM; to `Cc1ccc2c(c1)C1(CCc3sc(C(=O)c4cncnc4N[C@@H]4C[C@H](COS(N)(=O)=O)[C@@H](O)C4)cc31)NCC2` (some centres unmarked) [Compound 64], 0.05 to 0.2 µM; to `NS(=O)(=O)OC[C@H]1C[C@@H](Nc2ncncc2C(=O)c2cc3c(s2)CN(C2CC2)CC32OCCc3ccc(Cl)cc32)C[C@@H]1O` (some centres unmarked) [Compound 277], 0.05 to 0.2 µM. As to `NS(=O)(=O)OC[C@H]1C[C@@H](Nc2ncncc2C(=O)c2cc3c(s2)CCC32NCCc3cc(F)c(Cl)cc32)C[C@@H]1O` (some centres unmarked) [Compound 69], the IC50 is at most 0.05 µM. `CC(C)N1Cc2sc(C(=O)c3cncnc3N[C@@H]3C[C@H](COS(N)(=O)=O)[C@@H](O)C3)cc2C2(C1)OCCc1ccc(F)cc12` (some centres unmarked) [Compound 268]: the IC50 lay in the range of 0.05 to 0.2 µM.

As for `CN1Cc2sc(C(=O)c3cncnc3N[C@@H]3C[C@H](COS(N)(=O)=O)[C@@H](O)C3)cc2[C@]2(C1)OCCc1ccc(Cl)cc12` [Compound 261], the IC50 is at most 0.05 µM. On the same count and under the same terms, for `COc1cc2c(cc1Cl)[C@@]1(CCc3sc(C(=O)c4cncnc4N[C@@H]4C[C@H](COS(N)(=O)=O)[C@@H](O)C4)cc31)NCC2` [Compound 232] the value was 0.05 to 0.2 µM. Same read-out and setting: to `NS(=O)(=O)OC[C@H]1C[C@@H](Nc2ncncc2C(=O)c2cc3c(s2)CCC[C@]32NCCc3cc(Cl)c(F)cc32)C[C@@H]1O` [Compound 213] belongs at most 0.05 µM. Consider `NS(=O)(=O)OC[C@H]1C[C@@H](Nc2ncncc2C(=O)c2cc3c(s2)CCC[C@]32NCCc3ccc(C(F)(F)F)cc32)C[C@@H]1O` [Compound 205], for which the IC50 lay within 0.05 to 0.2 µM. Same read-out and setting: to `NS(=O)(=O)OC[C@H]1C[C@@H](Nc2ncncc2C(=O)c2cc3c(s2)CCC32NCCc3cc(Cl)ncc32)C[C@@H]1O` (some centres unmarked) [Compound 77] belongs 0.05 to 0.2 µM. As for `NS(=O)(=O)OC[C@H]1C[C@@H](Nc2ncncc2C(=O)c2cc3c(s2)COC[C@]32NCCc3ccc(Cl)c(F)c32)C[C@@H]1O` [Compound 105], the IC50 was in the range of 0.05 to 0.2 µM. With `Cc1cc2c(cc1Cl)[C@@]1(CCc3sc(C(=O)c4cncnc4N[C@@H]4C[C@H](COS(N)(=O)=O)[C@@H](O)C4)cc31)NCC2` [Compound 230], the IC50 was at most 0.05 µM. Regarding `N#Cc1cc2c(cc1Cl)[C@@]1(CCc3sc(C(=O)c4cncnc4N[C@@H]4C[C@H](COS(N)(=O)=O)[C@@H](O)C4)cc31)NCC2` [Compound 231], the IC50 is at most 0.05 µM. For `NS(=O)(=O)OC[C@H]1C[C@@H](Nc2ncncc2C(=O)c2cc3c(s2)C=C[C@]32NCCc3ccc(F)cc32)C[C@@H]1O` [Compound 178], the IC50 is at most 0.05 µM. Same read-out and setting: for `NS(=O)(=O)OC[C@H]1C[C@@H](Nc2ncncc2C(=O)c2nc3c(s2)CCCC32NCCc3ccc(Cl)cc32)C[C@@H]1O` (some centres unmarked) [Compound 121] the value was above 0.2 µM.

Take `CCN1Cc2sc(C(=O)c3cncnc3N[C@@H]3C[C@H](COS(N)(=O)=O)[C@@H](O)C3)cc2[C@@]2(C1)OCCc1ccc(F)cc12` [Compound 263]: the IC50 is above 0.2 µM. Turning to `NS(=O)(=O)OC[C@H]1C[C@@H](Nc2ncncc2C(=O)c2cc3c(s2)CCC32NCCc3ccc(Cl)cc32)C[C@@H]1O` (some centres unmarked) [Compound 46], the IC50 lay within 0.05 to 0.2 µM. `NS(=O)(=O)OC[C@H]1C[C@@H](Nc2ncncc2C(=O)c2cc3c(s2)C(F)=C[C@@]32NCCc3ccc(Cl)cc32)C[C@@H]1O` [Compound 155]: the IC50 was above 0.2 µM. Take `NS(=O)(=O)OC[C@H]1C[C@@H](Nc2ncncc2C(=O)c2cc3c(s2)C=C[C@@]32OCCc3ccccc32)C[C@@H]1O` [Compound 290]: the 50% inhibitory concentration (IC50) was above 0.2 µM. Consider `NS(=O)(=O)OC[C@H]1C[C@@H](Nc2ncncc2C(=O)c2cc3c(s2)CCC32OCCc3ccccc32)C[C@@H]1O` (some centres unmarked) [Compound 280], for which the IC50 is above 0.2 µM.

For the molecule `NS(=O)(=O)OC[C@H]1C[C@@H](Nc2ncncc2C(=O)c2cc3c(s2)COC[C@@]32NCCc3ccccc32)C[C@@H]1O` [Compound 14], the IC50 is above 0.2 µM. Still for that read-out and setting: to `NS(=O)(=O)OC[C@H]1C[C@@H](Nc2ncncc2C(=O)c2cc3c(s2)CCC[C@]32NCCc3cc(F)c(Cl)c(F)c32)C[C@@H]1O` [Compound 212] belongs at most 0.05 µM; to `CC(C)N1Cc2sc(C(=O)c3cncnc3N[C@@H]3C[C@H](COS(N)(=O)=O)[C@@H](O)C3)cc2[C@]2(C1)OCCc1ccc(F)cc12` [Compound 270], at most 0.05 µM. Consider `NS(=O)(=O)OC[C@H]1C[C@@H](Nc2ncncc2C(=O)c2cc3c(s2)CCC[C@]32NCCc3ccncc32)C[C@@H]1O` [Compound 214], for which the IC50 lay within 0.05 to 0.2 µM. Take `NS(=O)(=O)OC[C@H]1C[C@@H](Nc2ncncc2C(=O)c2cc3c(s2)C=CC32OCCc3ccc(Cl)cc32)C[C@@H]1O` (some centres unmarked) [Compound 295]: the IC50 was at most 0.05 µM. Still for that read-out and setting: for `C#CCN1Cc2sc(C(=O)c3cncnc3N[C@@H]3C[C@H](COS(N)(=O)=O)[C@@H](O)C3)cc2C2(C1)NCCc1ccc(Cl)cc12` (some centres unmarked) [Compound 193] the value was at most 0.05 µM. For `Cc1ccc2c(c1)[C@@]1(CCCc3sc(C(=O)c4cncnc4N[C@@H]4C[C@H](COS(N)(=O)=O)[C@@H](O)C4)cc31)NCC2` [Compound 202], the IC50 lay within 0.05 to 0.2 µM.

With `NS(=O)(=O)OC[C@H]1C[C@@H](Nc2ncncc2C(=O)c2cc3c(s2)CC=CC32NCCc3ccc(Cl)cc32)C[C@@H]1O` (some centres unmarked) [Compound 37], the IC50 is at most 0.05 µM.

The assay is the same for the next values; noted with them: 6 h incubation, numeric values, read-out: SUMO IF IC50.
For `NS(=O)(=O)OC[C@H]1C[C@@H](Nc2ncncc2C(=O)c2cc3c(s2)CN(C2CC2)C[C@@]32NCCc3ccc(Cl)cc32)C[C@@H]1O` [Compound 116], the IC50 is above 1 µM. In the case of `NS(=O)(=O)OC[C@H]1C[C@@H](Nc2ncncc2C(=O)c2cc3c(s2)CCC[C@@]32NCCc3ccc(Cl)cc32)C[C@@H]1O` [Compound 5], the concentration for half-maximal inhibition (IC50) was above 1 µM.
